Test results reported in article PMC6770857, “Unraveling Binding Mechanism of Alzheimer’s Drug Rivastigmine Tartrate with Human Transferrin: Molecular Docking and Multi-Spectroscopic Approach towards Neurodegenerative Diseases” (Biomolecules, 2019).
Where a name gives a salt, the structure may show the parent alone.

Target: T1, human transferrin (hTf) (Homo sapiens, UniProt P02787)
T1 construct: gene TF
Experiment: intrinsic fluorescence quenching, modified Stern-Volmer
Format: binding
Settings: pH 7.4, 50 mM sodium phosphate, 301 K, 4 uM hTf, excitation 280 nm, n = 0.99; double-log
From the text: intrinsic fluorescence quenching, modified Stern-Volmer on human transferrin (hTf)

T1 sequence (P02787 20-698): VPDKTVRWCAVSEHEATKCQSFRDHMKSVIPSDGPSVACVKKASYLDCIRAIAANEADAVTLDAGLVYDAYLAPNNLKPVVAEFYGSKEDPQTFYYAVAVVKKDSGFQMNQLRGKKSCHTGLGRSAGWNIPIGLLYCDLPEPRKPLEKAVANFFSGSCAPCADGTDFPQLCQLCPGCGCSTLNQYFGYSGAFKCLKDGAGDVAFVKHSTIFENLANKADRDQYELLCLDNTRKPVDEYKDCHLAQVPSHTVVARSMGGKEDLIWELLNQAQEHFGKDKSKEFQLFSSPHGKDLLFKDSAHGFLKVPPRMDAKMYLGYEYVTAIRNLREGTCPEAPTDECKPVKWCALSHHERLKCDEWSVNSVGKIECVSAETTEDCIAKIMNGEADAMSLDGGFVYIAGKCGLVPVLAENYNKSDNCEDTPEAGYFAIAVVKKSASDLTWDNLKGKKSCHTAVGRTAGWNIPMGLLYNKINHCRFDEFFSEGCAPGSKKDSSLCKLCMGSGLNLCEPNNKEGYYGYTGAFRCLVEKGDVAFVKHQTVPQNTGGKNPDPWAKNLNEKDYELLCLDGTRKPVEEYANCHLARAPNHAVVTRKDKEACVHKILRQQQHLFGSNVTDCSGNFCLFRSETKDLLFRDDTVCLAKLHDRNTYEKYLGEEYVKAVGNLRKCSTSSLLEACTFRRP

CCN(C)C(=O)Oc1cccc([C@H](C)N(C)C)c1 [Rivastigmine tartrate]
K (10^4 M^-1): 5.3 10^4 M^-1
